Reference: ChEMBL document CHEMBL1159297, “Anguillosporal, a new antibacterial and antifungal metabolite from the freshwater fungus Anguillospora longissima” (1995)
In brackets after ≈: the same amount, converted by molar mass.

Legend:
[1] = tested on: Candida albicans; test: Antifungal activity against Candida albicans ATCC 90029 by broth macrodilution method; format: functional
[2] = tested on: Staphylococcus aureus; test: Antibacterial activity against Staphylococcus aureus ATCC 29213 by broth macrodilution method; format: functional

MIC [1]: 58 mg/L (≈ 232 µM)
MIC [2]: 4 mg/L (≈ 16 µM)
Structure (SMILES): CCCCC(C)c1cc(O)c(CC)c(O)c1C=O (configuration not stated) [ANGUILLOSPORAL]
